Experiments:
PIK3CA (p110α) = PIK3CA (p110α) (Homo sapiens, UniProt P42336); test: PI-3K isoform inhibition, p110α (PIK3CA); the text calls it cell based; details: cell proliferation assays versus p110α and p110β isoforms
Description: PX-866 is an pan-isoform inhibitor of Class I P1-3K that covalently binds to ATP binding site of the p110 catalytic subunit.

[1] = Phase I trial of oral PX-866: clinical pharmacokinetics; format: in vivo, human
[2] = Phase I trial of oral PX-866: safety, DLT and MTD; format: in vivo, human; details: for Maximal Tolerated Dose (MTD): oral
Procedure: (§1) This was an Open-label dose escalation study with expansion cohort at Maximal Tolerated Dose (MTD), 3+3 design and to test efficacy of 2 dosing schedules (intermittent and continuous). PX-866 was administered as an oral dose.
The primary and secondary objectives were tested using two different dosing regimens: 10 days of drug administration and daily administration for 28 days.
Intermittent schedule: 10 dose levels tested (0.5-16 mg). The starting dose level was 0.5 mg. Doses increased as follows: 100% escalation up to 2 mg, 50% escalation up to 4.5 mg, and approximately 30% escalation until the MTD is identified. The highest dose level at which no more than 1/6 patients experiences DLT was declared the MTD. The resulting dose levels were: 0.5, 1, 2, 3, 4.5, 6, 8, 10, 12 and 16 mg.
FIG. 1 illustrates the dosing schedule for intermittent dosing where PX-866 was given to patients on days 1-5 and 8-12 of a 28-day cycle.
Continuous dosing schedule: The starting dose was two dose levels below the MTD of intermittent dosing (8 mg) and subsequent dose levels was one or two dose levels (10 mg or 8 mg) below the MTD of intermittent dosing dependent on recommendation of the dose cohort review committee. FIG. 1 illustrates the dosing schedule for continuous dosing.

advanced solid tumors = test: Phase I trial of oral PX-866: tumor response by RECIST; format: in vivo, human; details: 1 to 7 prior treatments, median 4 prior systemic regimens
Procedure: as §1
Patient response was evaluated according to Response Evaluation Criteria in Solid Tumors (RECIST). Briefly, all measurable lesions up to a maximum of five lesions, representative of all involved organs were identified as target lesions and recorded and measured at baseline. Target lesions were selected on the basis of their size (lesions with the longest diameter) and their suitability for accurate repeated measurements (either by imaging techniques or clinically). A sum of the longest diameter (LD) for all target lesions was calculated and reported as the baseline sum LD. The baseline sum LD was used as reference by which to characterize the objective tumor. All other lesions (or sites of disease) were identified as non-target lesions and were also be recorded at baseline. Measurements of these lesions were not required, but the presence or absence of each was noted throughout follow-up.
A Complete Response (CR) indicated a disappearance of all target lesions.

PI-3K pathway = test: Clinical pharmacodynamics: PBMCs stimulated ex vivo, FACS based assay (p-mTOR, p-S6); format: in vivo, human; details: PBMCs of treated patients stimulated ex vivo
Procedure: The pharmacodynamic effects of PX-866 in patients treated in the phase I single agent study were assessed using isolated peripheral blood mononuclear cells (PBMCs) stimulated ex vivo via FACS based assay. […] The study provided Evidence for pathway inhibition lasting up to 3 days post-treatment.

p-AKT/T-AKT = test: Clinical pharmacodynamics: p-AKT/T-AKT after a single oral dose; format: in vivo, human; details: 3 of 4 patients, 8 mg dose level, 4 hours after a single oral dose

Sequence of PIK3CA (p110α) (P42336 whole entry, canonical isoform): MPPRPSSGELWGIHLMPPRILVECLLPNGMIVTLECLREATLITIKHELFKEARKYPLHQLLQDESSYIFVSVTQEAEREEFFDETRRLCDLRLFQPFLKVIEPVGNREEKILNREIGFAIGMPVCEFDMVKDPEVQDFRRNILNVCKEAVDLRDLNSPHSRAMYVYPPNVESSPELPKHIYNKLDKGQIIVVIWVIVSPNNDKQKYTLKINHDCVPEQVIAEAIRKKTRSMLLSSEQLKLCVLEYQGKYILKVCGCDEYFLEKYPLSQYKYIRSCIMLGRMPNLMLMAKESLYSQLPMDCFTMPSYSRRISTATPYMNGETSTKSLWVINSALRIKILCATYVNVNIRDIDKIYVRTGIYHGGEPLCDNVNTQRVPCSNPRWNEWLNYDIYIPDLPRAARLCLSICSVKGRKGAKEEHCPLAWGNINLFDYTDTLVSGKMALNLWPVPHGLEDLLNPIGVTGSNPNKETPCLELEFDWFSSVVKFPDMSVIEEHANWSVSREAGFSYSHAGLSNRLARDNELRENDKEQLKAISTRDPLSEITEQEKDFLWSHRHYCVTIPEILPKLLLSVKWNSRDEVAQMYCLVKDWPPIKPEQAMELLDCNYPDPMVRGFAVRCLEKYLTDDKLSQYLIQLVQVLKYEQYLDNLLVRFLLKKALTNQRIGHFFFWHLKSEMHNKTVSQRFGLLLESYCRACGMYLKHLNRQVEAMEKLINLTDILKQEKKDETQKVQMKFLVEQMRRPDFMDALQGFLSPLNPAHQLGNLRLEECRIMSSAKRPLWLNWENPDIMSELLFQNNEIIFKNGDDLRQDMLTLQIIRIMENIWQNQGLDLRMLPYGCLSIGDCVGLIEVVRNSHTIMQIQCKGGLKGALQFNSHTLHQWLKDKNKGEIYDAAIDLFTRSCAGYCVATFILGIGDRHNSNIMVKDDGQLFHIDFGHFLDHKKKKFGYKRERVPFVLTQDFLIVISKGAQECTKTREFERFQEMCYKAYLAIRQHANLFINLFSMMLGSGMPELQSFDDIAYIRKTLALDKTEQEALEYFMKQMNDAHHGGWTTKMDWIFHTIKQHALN
Sequence of PIK3CA (p110α) (P27986 whole entry partner, canonical isoform): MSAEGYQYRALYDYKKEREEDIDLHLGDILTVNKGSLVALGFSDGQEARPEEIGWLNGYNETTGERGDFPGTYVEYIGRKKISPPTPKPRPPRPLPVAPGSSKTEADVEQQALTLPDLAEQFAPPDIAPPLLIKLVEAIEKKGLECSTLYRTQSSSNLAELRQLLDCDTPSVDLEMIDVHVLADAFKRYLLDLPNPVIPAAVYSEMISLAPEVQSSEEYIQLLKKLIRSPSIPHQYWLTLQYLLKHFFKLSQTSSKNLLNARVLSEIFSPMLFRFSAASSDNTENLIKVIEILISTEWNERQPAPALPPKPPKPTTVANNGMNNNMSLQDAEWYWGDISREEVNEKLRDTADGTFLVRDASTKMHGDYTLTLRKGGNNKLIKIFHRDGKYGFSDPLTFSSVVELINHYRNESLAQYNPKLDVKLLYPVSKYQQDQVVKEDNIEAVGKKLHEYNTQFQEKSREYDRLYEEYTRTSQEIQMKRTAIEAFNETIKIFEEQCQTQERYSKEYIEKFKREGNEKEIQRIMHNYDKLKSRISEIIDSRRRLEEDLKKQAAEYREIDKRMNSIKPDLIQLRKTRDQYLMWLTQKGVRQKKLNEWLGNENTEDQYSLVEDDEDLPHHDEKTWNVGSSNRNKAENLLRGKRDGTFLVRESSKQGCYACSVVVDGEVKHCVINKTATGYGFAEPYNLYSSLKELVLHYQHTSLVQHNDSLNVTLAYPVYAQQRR

C=CCN(C=C1C(=O)OC(COC)C2(C)C1=C(O)C(=O)C1=C2C(OC(C)=O)CC2(C)C(O)CCC12)CC=C (stereo not shown) [17-OH PX-866]
increase in potency versus the parent PX-866 (PIK3CA (p110α)): 2-5 fold | AUC in humans compared with mice ([1]; due to an increase in mean residence time in humans): exceeded AUC in mice

C=CCN(/C=C1/C(=O)O[C@H](COC)[C@@]2(C)C1=C(O)C(=O)C1=C2[C@H](OC(C)=O)C[C@]2(C)C(=O)CC[C@@H]12)CC=C [PX-866, Acetic acid 4-diallylaminomethylene-6-hydroxy-1-α-methoxymethyl-10β,13β-dimethyl-3,7,17-trioxo-1,3,4,7,10,11β,12,13,14α,15,16,17-dodecahydro-2-oxa-cyclopenta[α]phenanthren-11-yl ester]
Maximal Tolerated Dose (MTD) ([2]; continuous daily dosing): 8 mg per day | ALT/AST ([2]; continuous dosing): ALT/AST elevation was observed | Most common adverse events ([2]; continuous dosing): diarrhea, nausea, vomiting, headache and fatigue | Related Grade 3 events ([2]; continuous dosing section): vomiting (n=3), diarrhea (n=3), liver enzyme elevation (n=2) dehydration (n=1), worsened hypertension (n=1) | Dose limiting toxicity (DLT), patients affected ([2]; continuous dosing, 10 mg per day, Grade 3 diarrhea (n=2)): 2/3 | Most common adverse events ([2]; intermittent dosing): diarrhea, nausea, vomiting, and constipation | Related Grade 3 events ([2]; intermittent dosing): vomiting (n=3), diarrhea (n=3), liver enzyme elevation (n=2) dehydration (n=1), and worsened hypertension (n=1) | Dose limiting toxicity (DLT), patients affected ([2]; intermittent dosing, 16 mg per day, Grade 3 diarrhea (n=1), Grade 3 AST (n=1)): 2/5 | Maximal Tolerated Dose (MTD) ([2]; intermittent dosing, days 1-5 and 8-12 of a 28-day cycle): 12 mg per day | toxicity in patients receiving >2 cycles ([2]; printed in the continuous dosing section but worded intermittent dosing schedule): No significant increase in toxicity | effect on disease in prior treated patients (advanced solid tumors): stabilized disease | plasma level of parent PX-866 ([1]; after oral PX-866, with rare exceptions): below the limits of detection | effect on the PI-3K pathway (p-mTOR, p-S6) (PI-3K pathway): inhibition of the PI-3K pathway | decrease in p-AKT/T-AKT (p-AKT/T-AKT): ≥ 60%

Reference: patent publication US20130131156A1, “Cancer Treatment with Wortmannin Analogs” (ONCOTHYREON INC., priority 2010, published 2013)
